# US20090274687A1, “ATTENUATION OF HYPOXIA INDUCED CARDIOVASCULAR DISORDERS” (University Of Miami, priority 2008, published 2009)
# Entries after “also recorded” stand apart in the source; their conditions may differ.
# Key:
# [1] = test system: CXCR4 receptor; conditions: cited from earlier work
# [2] = test system: FVB/NJ neonatal mice exposed to normobaric hypoxia (hypoxia-induced pulmonary hypertension); assay: Prevention: neonatal mice exposed to 1 wk hypoxia, daily intraperitoneal treatment postnatal day 1-7; format: in vivo
# Protocol: Animal Care and Treatment: Sixty Eight FVB/NJ neonatal mice exposed to normobaric hypoxia (10% O2) or normoxia (20.9% O2) for one week were randomly assigned to receive daily intraperitoneal injections of normal saline (PL; n=19), or AMD3100 (7.5 mg/kg; n=10) or anti-SDF-1 antibody ([…]; n=19) for seven days, from postnatal day 1-7.
smiles,measurement,setting,value
"c1cc(CN2CCCNCCNCCCNCC2)ccc1CN1CCCNCCNCCCNCC1 [AMD3100, 1,1′-[1,4-phenylenebis(methylene)]bis-1,4,8,11-tetraazacyclotetradecane]",affinity relative to its affinity in CXCR4,[1]; after introduction of Glu VII:06 and removal of Lys VII:02,≤ 10 fold
same,increase in affinity of AMD3100,[1]; introduction of a Glu at position VII:06 and removal of a neutralizing Lys residue at position VII:02,1000 fold
same,"vascular remodeling (medial wall thickness), morphometric analysis of pulmonary arterioles","[2]; 1 wk hypoxia, 20-50 μm diameter arterioles, vs Hyp PL, FIG. 5D",marked decrease; also recorded: markedly attenuated
same,RV c-kit expression,"[2]; 1 wk hypoxia, right ventricle, vs Hyp PL, FIG. 4C",significantly decreased
same,RV Sca-1 expression,"[2]; 1 wk hypoxia, right ventricle, vs Hyp PL, FIG. 4D",significantly decreased
same,RV Isl-1 expression,"[2]; 1 wk hypoxia, right ventricle, vs Hyp PL, FIG. 4E",significantly decreased
same,"protein expression of stem cell markers (c-kit, Sca-1) in lungs and right ventricles","[2]; 1 wk hypoxia, to baseline or near baseline values, FIGS. 4A-4E",significantly decreased
same,lung c-kit expression,"[2]; 1 wk hypoxia, vs Hyp PL, to near baseline values, FIG. 4A",significantly decreased
same,lung Sca-1 expression,"[2]; 1 wk hypoxia, vs Hyp PL, to near baseline values, FIG. 4B",significantly decreased
same,RVSP,"[2]; 1 wk hypoxia, vs placebo, FIG. 5A",close to baseline values; also recorded: significantly attenuated
same,RV Hypertrophy (RV/LV+S),"[2]; 1 wk hypoxia, vs placebo, FIG. 5B",close to baseline values; also recorded: significantly attenuated
same,number of muscularized pulmonary arterioles (α-smooth muscle actin staining),"[2]; 1 wk hypoxia, vs placebo, FIG. 5C",decreased
same,percentage of non-muscularized pulmonary arterioles,"[2]; 1 wk hypoxia, vs placebo, FIG. 5E",significantly increased
same,"mean linear intercept (MLI), lung alveolarization","[2]; 1 wk hypoxia, vs placebo, FIG. 5F",significantly decreased
same,number of PCNA+ cells in the pulmonary vasculature (cell proliferation),"[2]; hypoxic mouse pups vs Hyp PL, FIGS. 6A-6B",significantly attenuated
same,number of TUNEL+ cells in the pulmonary vasculature (apoptosis),"[2]; hypoxic mouse pups vs Hyp PL, FIGS. 6D-6E",significantly attenuated
same,phosphorylated-Akt expression in lungs,"[2]; treated mouse pups vs placebo, FIG. 6C",marked decrease
